Results: ChEMBL document CHEMBL5338719, “Recent advance on pleiotropic cholinesterase inhibitors bearing amyloid modulation efficacy” (Eur J Med Chem, 2022)

Columns and labels:
Cholinesterase [1] = molecular target: T1, Cholinesterase (Homo sapiens, UniProt P06276); test: Inhibition of human recombinant BChE by Ellmans method preincubated for 5 mins followed by substrate addition measured every 2 mins
Acetylcholinesterase [2] = molecular target: T2, Acetylcholinesterase (Homo sapiens, UniProt P22303); test: Inhibition of human recombinant AChE preincubated for 5 mins followed by substrate addition measured every 2 mins by Ellmans method
T2 sequence (P22303 whole entry): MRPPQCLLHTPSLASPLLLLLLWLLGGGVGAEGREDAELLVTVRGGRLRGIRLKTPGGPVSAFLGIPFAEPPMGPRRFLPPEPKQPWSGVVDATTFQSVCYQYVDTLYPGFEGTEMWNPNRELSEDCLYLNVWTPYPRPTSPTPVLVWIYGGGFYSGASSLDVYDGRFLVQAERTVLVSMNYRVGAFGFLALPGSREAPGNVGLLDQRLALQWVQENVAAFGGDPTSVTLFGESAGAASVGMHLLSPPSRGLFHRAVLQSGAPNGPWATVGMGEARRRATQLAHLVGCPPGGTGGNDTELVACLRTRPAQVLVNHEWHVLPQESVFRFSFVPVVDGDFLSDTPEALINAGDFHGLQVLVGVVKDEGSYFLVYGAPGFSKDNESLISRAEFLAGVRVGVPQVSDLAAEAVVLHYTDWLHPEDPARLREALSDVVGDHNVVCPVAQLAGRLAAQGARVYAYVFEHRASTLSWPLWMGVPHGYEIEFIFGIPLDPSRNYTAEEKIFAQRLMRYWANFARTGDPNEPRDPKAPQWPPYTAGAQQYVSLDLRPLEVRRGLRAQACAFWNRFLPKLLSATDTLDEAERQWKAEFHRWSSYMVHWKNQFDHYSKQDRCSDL

[3] = molecular target: T3, Amyloid-beta precursor protein (Homo sapiens, UniProt P05067); test: Inhibition of amyloid beta 42 (unknown origin) self aggregation incubated for 48 hrs by fluoroMax-4 spectrofluorometeric analysis
T3 sequence (P05067 whole entry): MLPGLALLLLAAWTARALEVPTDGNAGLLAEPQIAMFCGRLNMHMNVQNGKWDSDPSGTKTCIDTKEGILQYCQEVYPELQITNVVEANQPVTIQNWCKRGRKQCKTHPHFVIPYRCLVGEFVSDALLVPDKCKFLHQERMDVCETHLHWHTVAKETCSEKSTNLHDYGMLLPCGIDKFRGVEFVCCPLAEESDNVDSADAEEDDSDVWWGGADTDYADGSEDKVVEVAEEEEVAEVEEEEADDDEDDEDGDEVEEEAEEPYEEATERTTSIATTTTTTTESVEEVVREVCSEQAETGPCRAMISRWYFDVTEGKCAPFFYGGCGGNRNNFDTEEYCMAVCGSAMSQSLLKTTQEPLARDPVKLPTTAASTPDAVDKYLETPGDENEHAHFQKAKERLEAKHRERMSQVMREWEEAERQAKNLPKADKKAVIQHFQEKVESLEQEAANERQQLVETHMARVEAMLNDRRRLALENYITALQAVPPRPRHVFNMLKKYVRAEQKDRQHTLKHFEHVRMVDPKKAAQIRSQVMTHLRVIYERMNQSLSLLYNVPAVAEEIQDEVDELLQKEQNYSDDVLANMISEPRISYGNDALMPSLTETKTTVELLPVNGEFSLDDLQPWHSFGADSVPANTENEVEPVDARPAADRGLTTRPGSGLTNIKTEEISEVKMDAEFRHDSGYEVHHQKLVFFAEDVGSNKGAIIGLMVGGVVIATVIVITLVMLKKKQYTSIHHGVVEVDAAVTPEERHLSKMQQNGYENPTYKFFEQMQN

[4] = molecular target: T3, Amyloid-beta precursor protein; test: Inhibition of amyloid beta 42 (unknown origin) fibrillization at 44 uM relative to control
Cholinesterase [5] = molecular target: T1, Cholinesterase; test: Inhibition of human BChE
Acetylcholinesterase [6] = molecular target: T2, Acetylcholinesterase; test: Inhibition of human AChE
[7] = molecular target: T3, Amyloid-beta precursor protein; test: Inhibition of amyloid beta 42 (unknown origin) fibrillization at 44 uM for 48 hrs by ThT fluorescence assay relative to control
Cholinesterase [8] = molecular target: T4, Cholinesterase (Equus caballus, UniProt P81908); test: Inhibition of equine BChE using BTChI as substrate
T4 sequence (P81908 whole entry): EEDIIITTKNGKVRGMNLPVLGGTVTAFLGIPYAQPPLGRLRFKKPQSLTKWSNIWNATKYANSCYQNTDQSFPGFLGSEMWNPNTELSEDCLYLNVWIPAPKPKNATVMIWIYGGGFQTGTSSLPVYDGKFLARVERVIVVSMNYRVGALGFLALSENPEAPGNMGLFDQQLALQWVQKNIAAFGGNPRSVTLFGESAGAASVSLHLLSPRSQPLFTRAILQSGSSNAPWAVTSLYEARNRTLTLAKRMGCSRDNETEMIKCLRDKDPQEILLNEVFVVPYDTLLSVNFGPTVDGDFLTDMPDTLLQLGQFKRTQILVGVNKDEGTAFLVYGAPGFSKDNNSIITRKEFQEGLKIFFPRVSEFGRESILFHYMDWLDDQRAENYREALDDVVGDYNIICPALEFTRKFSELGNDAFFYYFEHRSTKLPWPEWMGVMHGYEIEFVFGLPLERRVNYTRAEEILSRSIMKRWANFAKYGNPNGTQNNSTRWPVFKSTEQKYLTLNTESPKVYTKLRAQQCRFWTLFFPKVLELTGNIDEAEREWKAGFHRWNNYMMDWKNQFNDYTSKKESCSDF

Beta-secretase 1 [9] = molecular target: T5, Beta-secretase 1 (Homo sapiens, UniProt P56817); test: Inhibition of BACE1 (unknown origin) at 20 uM by fluorescence assay relative to control
T5 sequence (P56817 whole entry): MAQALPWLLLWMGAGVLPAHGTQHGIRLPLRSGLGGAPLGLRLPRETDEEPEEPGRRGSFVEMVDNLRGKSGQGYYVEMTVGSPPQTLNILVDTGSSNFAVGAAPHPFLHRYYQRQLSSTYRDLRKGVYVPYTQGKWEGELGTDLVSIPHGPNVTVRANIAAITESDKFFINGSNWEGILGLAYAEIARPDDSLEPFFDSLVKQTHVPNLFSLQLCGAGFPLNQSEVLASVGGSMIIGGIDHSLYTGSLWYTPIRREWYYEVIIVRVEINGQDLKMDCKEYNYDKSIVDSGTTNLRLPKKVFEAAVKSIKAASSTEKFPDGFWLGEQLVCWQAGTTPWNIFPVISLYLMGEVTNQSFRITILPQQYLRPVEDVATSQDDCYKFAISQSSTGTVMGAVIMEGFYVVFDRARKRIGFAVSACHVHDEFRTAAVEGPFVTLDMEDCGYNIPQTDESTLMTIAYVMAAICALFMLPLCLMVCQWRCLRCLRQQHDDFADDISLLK

Acetylcholinesterase [10] = molecular target: T6, Acetylcholinesterase (Electrophorus electricus, UniProt O42275); test: Inhibition of electric eel AChE using ATChI as substrate
T6 sequence (O42275 whole entry): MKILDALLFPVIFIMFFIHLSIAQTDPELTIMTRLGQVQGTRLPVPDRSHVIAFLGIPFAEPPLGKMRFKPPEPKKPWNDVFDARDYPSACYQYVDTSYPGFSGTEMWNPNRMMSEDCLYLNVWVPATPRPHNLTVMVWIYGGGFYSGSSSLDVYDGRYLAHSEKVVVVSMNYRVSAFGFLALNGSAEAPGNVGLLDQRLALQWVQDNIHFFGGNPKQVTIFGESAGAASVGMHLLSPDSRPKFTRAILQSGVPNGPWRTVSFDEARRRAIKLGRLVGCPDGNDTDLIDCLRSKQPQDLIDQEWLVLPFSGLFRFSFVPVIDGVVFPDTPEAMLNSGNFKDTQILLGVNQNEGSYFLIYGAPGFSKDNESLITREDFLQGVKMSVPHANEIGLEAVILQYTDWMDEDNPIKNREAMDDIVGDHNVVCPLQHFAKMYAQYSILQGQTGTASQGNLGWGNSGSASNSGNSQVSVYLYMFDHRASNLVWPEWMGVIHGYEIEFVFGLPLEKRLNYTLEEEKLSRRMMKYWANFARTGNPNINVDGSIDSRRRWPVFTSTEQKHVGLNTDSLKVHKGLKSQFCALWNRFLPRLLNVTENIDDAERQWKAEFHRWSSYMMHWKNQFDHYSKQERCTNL

Cholinesterase [11] = molecular target: T1, Cholinesterase; test: Inhibition of human BChE by Ellmans method
[12] = molecular target: T3, Amyloid-beta precursor protein; test: Inhibition of amyloid beta 42 (unknown origin) self aggregation at 25 uM by ThT fluorometric assay relative to control
Acetylcholinesterase [13] = molecular target: T6, Acetylcholinesterase; test: Inhibition of electric eel AChE by Ellman's method
[14] = molecular target: T3, Amyloid-beta precursor protein; test: Inhibition of amyloid beta 42 (unknown origin) aggregation at 25 uM relative to control
[15] = molecular target: Microtubule-associated protein tau (Homo sapiens) (UniProt P10636); test: Inhibition of tau (306 to 336 residue) (unknown origin) aggregation at 50 uM incubated overnight by ThT fluorometric assay relative to control
Microtubule-associated protein tau (Homo sapiens), sequence (P10636 whole entry): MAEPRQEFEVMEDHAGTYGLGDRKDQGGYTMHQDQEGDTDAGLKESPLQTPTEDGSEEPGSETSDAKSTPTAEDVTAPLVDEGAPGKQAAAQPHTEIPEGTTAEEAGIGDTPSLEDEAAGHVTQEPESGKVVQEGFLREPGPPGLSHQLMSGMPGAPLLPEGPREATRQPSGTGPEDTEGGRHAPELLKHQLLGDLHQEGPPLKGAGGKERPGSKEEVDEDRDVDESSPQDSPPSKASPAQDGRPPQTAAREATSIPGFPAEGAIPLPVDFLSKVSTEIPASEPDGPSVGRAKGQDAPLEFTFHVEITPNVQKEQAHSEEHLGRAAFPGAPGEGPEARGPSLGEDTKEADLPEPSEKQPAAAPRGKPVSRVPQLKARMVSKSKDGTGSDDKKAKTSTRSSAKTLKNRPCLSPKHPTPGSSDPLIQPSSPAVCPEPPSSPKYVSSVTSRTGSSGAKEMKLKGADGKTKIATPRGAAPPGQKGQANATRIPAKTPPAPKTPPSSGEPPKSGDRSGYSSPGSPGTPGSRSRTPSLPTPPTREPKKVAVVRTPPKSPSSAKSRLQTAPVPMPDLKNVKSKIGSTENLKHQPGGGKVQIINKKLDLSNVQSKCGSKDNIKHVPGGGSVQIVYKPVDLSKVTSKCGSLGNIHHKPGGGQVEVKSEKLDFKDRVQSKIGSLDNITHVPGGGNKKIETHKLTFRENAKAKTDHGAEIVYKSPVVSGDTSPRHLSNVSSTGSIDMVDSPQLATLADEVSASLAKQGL

[16] = molecular target: T3, Amyloid-beta precursor protein; test: Inhibition of amyloid beta 1 to 42 (unknown origin) self aggregation at 50 uM for 24 hrs by ThT fluorometric assay relative to control
Acetylcholinesterase [17] = molecular target: T2, Acetylcholinesterase; test: Inhibition of human erythrocyte AChE using ATC iodide as substrate preincubated for 5 mins followed by substrate addition measured Ellmans method
Cholinesterase [18] = molecular target: T1, Cholinesterase; test: Inhibition of human […] BChE using BTC iodide as substrate preincubated for 5 mins followed by substrate addition measured Ellmans method
Acetylcholinesterase [19] = molecular target: T7, Acetylcholinesterase (Rattus norvegicus, UniProt P37136); test: Inhibition of rat cortex homogenate AChE by Ellman's method; format: tissue-based
T7 sequence (P37136 whole entry): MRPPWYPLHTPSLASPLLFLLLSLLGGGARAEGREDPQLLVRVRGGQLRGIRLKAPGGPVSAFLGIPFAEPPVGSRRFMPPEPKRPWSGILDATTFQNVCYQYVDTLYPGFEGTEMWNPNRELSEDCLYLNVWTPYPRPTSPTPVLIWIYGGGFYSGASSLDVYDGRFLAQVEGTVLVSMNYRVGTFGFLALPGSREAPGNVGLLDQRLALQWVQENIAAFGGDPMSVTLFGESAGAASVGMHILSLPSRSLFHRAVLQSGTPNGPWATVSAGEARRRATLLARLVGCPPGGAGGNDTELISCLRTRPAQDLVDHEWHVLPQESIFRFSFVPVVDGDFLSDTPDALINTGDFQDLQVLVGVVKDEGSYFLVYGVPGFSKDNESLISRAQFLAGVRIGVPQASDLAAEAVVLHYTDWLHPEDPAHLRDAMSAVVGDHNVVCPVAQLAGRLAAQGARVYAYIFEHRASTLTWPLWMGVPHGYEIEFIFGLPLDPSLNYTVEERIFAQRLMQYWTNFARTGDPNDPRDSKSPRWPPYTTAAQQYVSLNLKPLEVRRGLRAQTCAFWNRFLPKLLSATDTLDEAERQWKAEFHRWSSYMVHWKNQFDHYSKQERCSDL

[20] = molecular target: T3, Amyloid-beta precursor protein; test: Inhibition of amyloid beta 1 to 42 (unknown origin) self induced aggregation at 25 uM by ThT fluorescence assay relative to control
[21] = molecular target: T3, Amyloid-beta precursor protein; test: Inhibition of amyloid beta 42 (unknown origin) aggregation at 50 uM by Thioflavin T-based fluorescence assay relative to control
Acetylcholinesterase [22] = molecular target: T2, Acetylcholinesterase; test: Inhibition of human erythrocyte AChE using […] as substrate preincubated for 5 mins followed by substrate addition measured Ellmans method
[23] = molecular target: T3, Amyloid-beta precursor protein; test: Inhibition of amyloid beta 1 to 42 (unknown origin) aggregation at 10 uM for 24 hrs by ThT fluorometric assay relative to control
Beta-secretase 1 [24] = molecular target: T5, Beta-secretase 1; test: Inhibition of BACE1 (unknown origin) at 50 uM by FRET-based enzyme assay relative to control
Cholinesterase [25] = molecular target: T1, Cholinesterase; test: Inhibition of human recombinant BChE expressed in HEK293 cells using butyrylthiocholine as substrate incubated for 120 mins by Ellman's method
[26] = molecular target: T3, Amyloid-beta precursor protein; test: Inhibition of amyloid beta 42 (unknown origin) aggregation at 1 mM for 12 hrs relative to control
Acetylcholinesterase [27] = molecular target: T2, Acetylcholinesterase; test: Inhibition of human recombinant AChE expressed in HEK293 cells using acetylthiocholine as substrate incubated for 120 mins by Ellman's method
[28] = molecular target: T3, Amyloid-beta precursor protein; test: Inhibition of amyloid beta 42 (unknown origin) self aggregation at 10 uM relative to control
[29] = molecular target: T3, Amyloid-beta precursor protein; test: Inhibition of amyloid beta 42 (unknown origin) aggregation at 80 uM relative to control
Acetylcholinesterase [30] = molecular target: Acetylcholinesterase (Torpedo californica, UniProt P04058); test: Inhibition of pacific electric ray AChE; parameters: species or system Tetronarce californica
Acetylcholinesterase (Torpedo californica, UniProt P04058), sequence (P04058 whole entry): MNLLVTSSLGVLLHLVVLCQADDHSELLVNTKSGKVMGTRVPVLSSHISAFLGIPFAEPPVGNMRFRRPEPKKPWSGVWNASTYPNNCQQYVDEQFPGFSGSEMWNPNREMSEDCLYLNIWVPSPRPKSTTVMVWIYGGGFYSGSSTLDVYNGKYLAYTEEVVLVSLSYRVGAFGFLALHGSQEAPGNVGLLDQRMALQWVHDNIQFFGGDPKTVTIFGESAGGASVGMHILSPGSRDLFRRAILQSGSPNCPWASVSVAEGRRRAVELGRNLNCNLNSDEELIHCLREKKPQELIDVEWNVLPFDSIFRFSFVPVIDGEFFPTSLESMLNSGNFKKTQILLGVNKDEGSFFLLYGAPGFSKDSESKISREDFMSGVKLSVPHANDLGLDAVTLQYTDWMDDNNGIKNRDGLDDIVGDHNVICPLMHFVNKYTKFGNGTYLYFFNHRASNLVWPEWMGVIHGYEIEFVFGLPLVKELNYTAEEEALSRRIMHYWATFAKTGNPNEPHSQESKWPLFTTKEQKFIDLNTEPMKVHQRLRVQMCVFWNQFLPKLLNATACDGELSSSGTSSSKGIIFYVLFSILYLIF

[31] = molecular target: T3, Amyloid-beta precursor protein; test: Inhibition of amyloid beta 42 (unknown origin) aggregation at 50 uM for 24 hrs by thioflavin T fluorescence method relative to control
Acetylcholinesterase [32] = molecular target: T2, Acetylcholinesterase; test: Inhibition of human recombinant AChE by spectrophotometer based Ellman's method
Cholinesterase [33] = molecular target: T4, Cholinesterase; test: Inhibition of equine BChE using butyrylthiocholine as substrate by Ellman's method
[34] = molecular target: T3, Amyloid-beta precursor protein; test: Inhibition of amyloid beta 42 (unknown origin) aggregation at 25 uM by Thioflavin T-based fluorescence assay relative to control
Acetylcholinesterase [35] = molecular target: T6, Acetylcholinesterase; test: Inhibition of electric eel AchE using acetylthiocholine as substrate by Ellman's method

T1 sequence (P06276 whole entry): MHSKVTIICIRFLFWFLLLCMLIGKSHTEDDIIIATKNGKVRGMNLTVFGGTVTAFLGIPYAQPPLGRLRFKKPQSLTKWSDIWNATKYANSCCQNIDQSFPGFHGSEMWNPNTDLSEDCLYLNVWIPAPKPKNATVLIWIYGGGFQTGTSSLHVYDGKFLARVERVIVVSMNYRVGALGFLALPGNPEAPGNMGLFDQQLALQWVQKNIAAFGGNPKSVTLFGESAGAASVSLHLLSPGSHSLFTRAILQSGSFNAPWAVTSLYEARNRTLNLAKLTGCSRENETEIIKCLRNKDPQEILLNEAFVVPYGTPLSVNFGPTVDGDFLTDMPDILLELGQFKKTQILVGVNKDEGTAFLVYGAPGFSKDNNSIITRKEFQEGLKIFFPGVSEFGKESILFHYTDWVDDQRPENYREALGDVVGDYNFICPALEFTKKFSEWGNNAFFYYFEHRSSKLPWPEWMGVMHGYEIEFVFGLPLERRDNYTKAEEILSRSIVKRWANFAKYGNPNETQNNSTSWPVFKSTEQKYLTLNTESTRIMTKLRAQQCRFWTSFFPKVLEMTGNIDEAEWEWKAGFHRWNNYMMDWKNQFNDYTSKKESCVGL

Compound: O=C(NCCCNc1c2c(nc3cc(Cl)ccc13)CCCC2)c1nc2ccc([N+](=O)[O-])cc2s1
- IC50 (Cholinesterase [1]): 4660 µM
- IC50 (Acetylcholinesterase [2]): 0.018 µM
- IC50 [3]: 3.8 µM

Compound: COC(=O)[C@H]1[C@H]2C[C@@H]3c4[nH]c5cc(OC)ccc5c4CCN3C[C@H]2C[C@@H](OC(=O)c2cc(OC)c(OC)c(OC)c2)[C@@H]1OC [RESERPINE]
- inhibition [4]: 68%
- IC50 (Cholinesterase [5]): 2.8 µM
- IC50 (Acetylcholinesterase [6]): 1.7 µM

Compound: CCCOc1ccc2c(C)cc(=S)oc2c1OCCC
- inhibition [7]: 76.7%
- IC50 (Cholinesterase [8]): 17 µM
- inhibition (Beta-secretase 1 [9]): 57.2%
- IC50 (Acetylcholinesterase [10]): 5.63 µM

Compound: O=C(/C=C/c1cccs1)N1CCc2ccccc2C1
- IC50 (Cholinesterase [11]): 2.5 µM
- inhibition [12]: 65.2%
- IC50 (Acetylcholinesterase [13]): 19.4 µM

Compound: O=C(CCCN(Cc1ccccn1)Cc1ccccn1)NCCCNc1c2c(nc3ccccc13)CCCC2
- inhibition [14]: 71.1%

Compound: CCOC(=O)C1=C(C)N(CCC2CCN(Cc3ccccc3)CC2)C(=O)NC1c1coc2c(Cl)cc(Cl)cc2c1=O (stereo unspecified)
- inhibition [15]: 73.7%
- inhibition [16]: 63.6%
- IC50 (Acetylcholinesterase [17]): 0.06 µM
- IC50 (Cholinesterase [18]): 17.3 µM

Compound: CCN(CCCCCCOc1ccc(/C=C/C(=O)c2c(O)cc(OC)c(O)c2OC)cc1)Cc1ccccc1OC
- IC50 (Acetylcholinesterase [19]): 0.41 µM
- inhibition [20]: 78%

Compound: O=c1nc2sc3ccccc3n2c2ncccc12
- inhibition [21]: 30.8%
- IC50 (Acetylcholinesterase [22]): 2.78 µM

Compound: O=S(=O)(NCC1CCN(Cc2ccccc2)CC1)c1ccc(-c2ccccc2)cc1
- inhibition [23]: 60.7%

Compound: O=C(Nc1ccc(Oc2ccc3ccc(=O)oc3c2)cc1)c1cc(-c2cccc([N+](=O)[O-])c2)on1
- inhibition (Beta-secretase 1 [24]): 48.5%
- IC50 (Acetylcholinesterase [13]): 1.23 µM

Compound: O=C(C[n+]1ccc2ccccc2c1)Nc1ccccc1Br
- IC50 (Cholinesterase [25]): 12 µM
- inhibition [26]: 18%
- IC50 (Acetylcholinesterase [27]): 13 µM

Compound: CN(C)CCN1CCN(c2ccc(C(=O)/C=C/c3cc4ccccc4o3)cc2)CC1
- inhibition [28]: 94.6%

Compound: COc1cccc2cc(C(=O)NCCCNc3c4c(nc5cc(Cl)ccc35)CCCC4)oc12
- inhibition [29]: 57.8%
- IC50 (Acetylcholinesterase [30]): 0.13 µM

Compound: CC1=C(NC2CCN(Cc3ccccc3)CC2)C(=O)c2ccccc2C1=O
- inhibition [31]: 52%
- IC50 (Acetylcholinesterase [32]): 47.5 µM

Compound: CCc1cc(-c2nnc(Nc3ccccc3Cl)s2)c(O)cc1O
- IC50 (Cholinesterase [33]): 18.3 µM
- inhibition [34]: 55.8%
- IC50 (Acetylcholinesterase [35]): 0.031 µM
